Reference: ChEMBL document CHEMBL5523754, “Discovery of Biphenyl Derivatives to Target Hsp70-Bim Protein-Protein Interaction in Chronic Myeloid Leukemia by Scaffold Hopping Strategy” (J Med Chem, 2024)
pEC50, pIC50, pKd: −log10 of the molar value. ≈ marks a conversion by molar mass, not a printed value. Calls of active or inactive are those of the source. The calls are words filed in the database; no cut-off is given here.

Legend:
Homo sapiens [1] = organism: Homo sapiens; test: Inhibition of BimBH3 peptide stimulated human N-terminal 6xHis tagged Hsp70 ATPase activity expressed in Escherichia coli BL21 (DE3) at 0 to 50 uM preincubated for 30 mins followed by ATP addition and measured after 10 mins by luciferin based luminescence analysis; details: dose 0-50 µM, time 40.0 min
Homo sapiens [2] = organism: Homo sapiens; test: Effect on human N-terminal 6xHis tagged HSP70 basal ATPase activity expressed in Escherichia coli BL21 (DE3) at 0 to 50 uM preincubated for 30 mins followed by ATP addition and measured after 10 mins by luciferin based luminescence analysis; details: dose 0-50 µM, time 40.0 min
[3] = Inhibition of N-terminal 6xHis tagged human Hsp70 expressed in Escherichia coli BL21 (DE3)/FAM-labeled BimBH3 peptide (unknown origin) protein protein interaction incubated for 10 mins by fluorescence polarization assay
HEK293 = test: Induction of apoptosis in HEK293 cells assessed as apoptotic rate at 15 uM incubated for 48 hrs by Annexin V-FITC staining based flow cytometry analysis relative to control; format: toxicity, cell-based; details: human, hek293, 48 h
[4] = Binding affinity to N-terminal 6xHis tagged human HSP70 expressed in Escherichia coli BL21 (DE3) assessed as dissociation constant by ITC analysis
[5] = Aqueous solubility of compound at pH 7 at 10 mg incubated for 24 hrs under shaking condition by HPLC method; format: physicochemical; details: aqueous medium
K562 [6] = test: Inhibition of HSP70/Bim protein-protein interaction in human K562 cells assessed as reduction in AKT protein expression at 2 uM incubated for 12 hrs by Western blot analysis; format: cell-based
K562 [7] = test: Induction of apoptosis in human K562 cells incubated for 48 hrs by Annexin V-FITC staining based flow cytometry analysis; format: functional, cell-based; details: K562, 48 h
K562 [8] = test: Induction of apoptosis in Bim shRNA-transfected human K562 cells assessed as increase in PARP cleavage at 2 uM incubated for 24 hrs by Western blot analysis; format: functional, cell-based
BaF3 = test: Induction of apoptosis in mouse BaF3 cells assessed as apoptotic rate at 15 uM incubated for 48 hrs by Annexin V-FITC staining based flow cytometry analysis relative to control; format: toxicity, cell-based; details: baf3, 48 h
K562 [9] = test: Inhibition of HSP70/Bag3 protein-protein interaction in human K562 cells at 0.5 to 3 uM incubated for 12 hrs by coimmunoprecipitation analysis; format: cell-based; details: dose 0.5-3 µM
K562 [10] = test: Inhibition of HSP70/Bim protein-protein interaction in human K562 cells assessed as reduction in eIF4E protein expression at 2 uM incubated for 12 hrs by Western blot analysis; format: cell-based
K562 [11] = test: Inhibition of HSP70/Bim protein-protein interaction in human K562 cells incubated for 12 hrs by coimmunoprecipitation analysis; format: cell-based; details: dose 0.5-3 µM
[12] = (§1) Inhibition of BimBH3 peptide stimulated human N-terminal 6xHis tagged Hsp70 ATPase activity expressed in Escherichia coli BL21 (DE3) preincubated for 30 mins followed by ATP addition and measured after 10 mins by luciferin based luminescence analysis
Homo sapiens [13] = organism: Homo sapiens; test: as §1; details: time 40.0 min
K562 [14] = test: Inhibition of HSP70/Bim protein-protein interaction in human K562 cells assessed as reduction in Raf-1 protein expression at 2 uM incubated for 12 hrs by Western blot analysis; format: cell-based
K562 [15] = test: Induction of apoptosis in Hsp70 shRNA-transfected human K562 cells assessed as increase in PARP cleavage at 2 uM incubated for 24 hrs by Western blot analysis; format: functional, cell-based
[16] = Induction of apoptosis in human Imatinib-resistant K562-R3 cells incubated for 48 hrs by Annexin V-FITC staining based flow cytometry analysis; format: functional; details: Imatinib-resistant K562-R3 cell
BV-173 = test: Induction of apoptosis in human BV-173 cells incubated for 48 hrs by Annexin V-FITC staining based flow cytometry analysis; format: functional, cell-based; details: BV-173, 48 h
K562 [17] = test: Inhibition of HSP70/Bim protein-protein interaction in human K562 cells assessed as reduction in eIF4E protein expression incubated for 12 hrs by Western blot analysis; format: cell-based
K562 [18] = test: Inhibition of HSP70/Bim protein-protein interaction in human K562 cells assessed as reduction in Raf-1 protein expression incubated for 12 hrs by Western blot analysis; format: cell-based
K562 [19] = test: Inhibition of HSP70/Bim protein-protein interaction in human K562 cells assessed as reduction in AKT protein expression incubated for 12 hrs by Western blot analysis; format: cell-based
K562 [20] = test: Inhibition of HSP70/Bag3 protein-protein interaction in human K562 cells at 3 uM incubated for 12 hrs by coimmunoprecipitation analysis; format: cell-based
Homo sapiens [21] = organism: Homo sapiens; test: Inhibition of human N-terminal 6xHis tagged HSP70 basal ATPase activity expressed in Escherichia coli BL21 (DE3) at 0 to 50 uM preincubated for 30 mins followed by ATP addition and measured after 10 mins by luciferin based luminescence analysis; details: dose 0-50 µM, time 40.0 min
[22] = Induction of apoptosis in mouse BaF3 cells incubated for 48 hrs by Annexin V-FITC staining based flow cytometry analysis; format: toxicity, cell-based
K562 [23] = test: Inhibition of HSP70/Bag3 protein-protein interaction in human K562 cells at 5 uM incubated for 12 hrs by coimmunoprecipitation analysis; format: cell-based
[24] = Induction of apoptosis in HEK293 cells incubated for 48 hrs by Annexin V-FITC staining based flow cytometry analysis; format: toxicity, cell-based; details: human
K562 [25] = test: Inhibition of HSP70/Bim protein-protein interaction in human K562 cells at 5 uM incubated for 12 hrs by coimmunoprecipitation analysis; format: cell-based

Row | SMILES | inhibition (Homo sapiens [1]) | Activity (Homo sapiens [2]) | pIC50 [3] | other results
1 | Cc1cc(Oc2ccc(-c3cc(O)c(C#N)c(NCCN4CCCC4)c3)cc2)cc(C)c1Cl | Active | inactive | 7.05 | –
2 | CN(C)CCn1cnc2ccc(NC(=O)C3CCCCC3)cc21 | Active | inactive | < 5.00 | –
3 | CCN(CC)CCNc1cc(-c2ccc(Oc3cc(C)c(Cl)c(C)c3)cc2)cc(O)c1C#N | Active | inactive | 6.55 | –
4 | CN(C)CCNc1cc(-c2ccc(OC3CCCCC3)cc2)cc(CC(=O)O)c1C#N | Active | inactive | 5.44 | –
5 | Cc1cc(Oc2ccc(-c3cc(O)c(C#N)c(NCCN(C)C)c3)cc2)cc(C)c1Cl | Active | inactive | 6.48 | –
6 | CCN(CC)CCn1cnc2ccc(NC(=O)NC3CCCCC3)cc21 | Active | inactive | < 5.00 | –
7 | O=C(Nc1ccc2ncn(CCN3CCOCC3)c2c1)NC1CCCCC1 | Active | inactive | < 5.00 | –
8 | CN(C)CCNc1cc(-c2ccc(Oc3ccccc3)cc2)cc(O)c1C#N | Active | inactive | 5.67 | –
9 | Cc1cc(C)cc(Oc2ccc(-c3cc(O)c(C#N)c(NCCN(C)C)c3)cc2)c1 | Active | inactive | 6.21 | –
10 | Cc1cc(Oc2ccc(-c3cc(O)c(C#N)c(NCCN4CCCCC4)c3)cc2)cc(C)c1Cl | – | inactive | 7.15 | Activity (HEK293): < 10%; pKd [4]: 6.91; solubility thermodynamic at 24 h [5]: 29.4 µg/mL (≈ 61.8 µM); inhibition (K562 [6]): Active; pEC50 (K562 [7]): 6.06; Activity (K562 [8]): inactive; Activity (BaF3): < 10%; inhibition (K562 [9]): inactive; inhibition (K562 [10]): Active; inhibition (K562 [11]): Dose-Dependent Effect; pIC50 [12]: 5.31; inhibition (Homo sapiens [13]): Dose-Dependent Effect; inhibition (K562 [14]): Active; Activity (K562 [15]): inactive; pEC50 [16]: 6.72; pEC50 (BV-173): 6.37
11 | CN(C)CCn1ccc2ccc(NC(=O)NC3CCCCC3)cc21 | Active | inactive | < 5.00 | –
12 | Cc1cccc(Oc2ccc(-c3cc(O)c(C#N)c(NCCN(C)C)c3)cc2)c1 | Active | inactive | 6.09 | –
13 | CN(C)CCNc1cc(-c2ccc(OC34CC5CC(CC(C5)C3)C4)cc2)cc(O)c1C#N | Active | inactive | 5.06 | –
14 | CN(C)CCn1cnc2ccc(NC(=O)NC3CCCCC3)cc21 | Active | inactive | < 5.00 | –
15 | Cc1cc(Oc2ccc(-c3cc(O)c(C#N)c(NCCN(C)C)c3)cc2)cc(C)c1N | Active | inactive | 6.39 | –
16 | CN(C)CCNc1cc(-c2ccc(OC3CCCCC3)cc2)cc(O)c1C#N | Active | inactive | 6.03 | –
17 | CN(C)CCNc1cc(-c2ccc(OC3CCCCC3)cc2)cc(F)c1C#N | Active | inactive | 5.09 | –
18 | CCN(CC)CCNC1=C(C#N)C(=O)c2cccc3c(SC4CCCCC4)ccc1c23 | Active | inactive | 6.10 | Activity (HEK293): < 10%; pKd [4]: 6.16; solubility thermodynamic at 24 h [5]: 7.19 µg/mL (≈ 16.6 µM); inhibition (K562 [17]): Active; pEC50 (K562 [7]): 5.92; inhibition (K562 [18]): Active; inhibition (K562 [19]): Active; Activity (BaF3): < 10%; inhibition (K562 [20]): inactive; pEC50 [16]: 6.43; pEC50 (BV-173): 6.18
19 | CN(C)CCNc1cc(-c2ccc(Oc3cc(C(C)(C)C)cc(C(C)(C)C)c3)cc2)cc(O)c1C#N | Active | inactive | 6.06 | –
20 | O=C(Nc1ccc2ccn(CCN3CCOCC3)c2c1)NC1CCCCC1 | Active | inactive | < 5.00 | –
21 | N#Cc1ccc(COC[C@H]2O[C@@H](n3c(NCc4ccc(Cl)c(Cl)c4)nc4c(N)ncnc43)[C@H](O)[C@@H]2O)cc1 | Active | – | – | inhibition (Homo sapiens [21]): Active; pEC50 (K562 [7]): 5.15; EC50 at 48 h [22]: 7730 nM; inhibition (K562 [23]): inactive; EC50 at 48 h [24]: 6460 nM; inhibition (K562 [25]): inactive; pEC50 [16]: 5.06; pEC50 (BV-173): 5.25
22 | CN(C)CCn1c(=O)oc2ccc(NC(=O)NC3CCCCC3)cc21 | Active | inactive | < 5.00 | –
23 | Cc1cc(-c2ccc(OC3CCCCC3)cc2)cc(NCCN(C)C)c1C#N | Active | inactive | < 5.00 | –
24 | O=C(Nc1ccc2ccn(CCN3CCOCC3)c2c1)C1CCCCC1 | Active | inactive | < 5.00 | –
